# Measurements from publication PMC7101356, “Cross-site and cross-platform variability of automated patch clamp assessments of drug effects on human cardiac currents in recombinant cells” (Scientific Reports, 2020).
# Columns and labels:
# [1] = based on CiPA evaluations; cited from earlier work
# peak hNav1.5 = biological target: T1, peak hNav1.5 (Homo sapiens, UniProt Q14524); assay: Automated patch clamp, peak hNav1.5 current block; type: cell-based; settings: for nH (=constant), peak hNav1.5 Na+ current inhibition: Hill slope held constant in fit
# T1 construct: expressed in transfected cells; host or cells: HEK293 or CHO, depending on site
# Method: Peak current was measured during the depolarizing step to −15 mV. Leak current was measured after applying a saturating concentration of a blocker such as lidocaine (2 mM) at the end of each experiment to completely block hNav1.5 current.
# (§1) Concentration-response relationships for each test article were independently investigated, i.e., each cell received only one test article, typically evaluating multiple concentrations in a cumulative fashion (lowest to highest concentrations). However, some platforms tested only one concentration per well. Each concentration response was based on a minimum of four concentrations, with a minimum of three wells used for each concentration. In cases of high variability, more cells per concentration were recorded. Prior to drug addition, cells received an addition of vehicle to measure non-test article-related effects such as addition artifacts. At the end of the experiment, a supramaximal concentration of a known inhibitory reference compound was applied to assess leak current and appropriate responsiveness of the test system.
# (§2) The steady state current at each concentration was used to determine the concentration-response relationships. Mean concentration-response data were fitted to a standard sigmoidal four-parameter logistic equation (GraphPad Prism 7; GraphPad Inc., La Jolla, CA) of the form: Y=Bottom+(Top−Bottom)/(1+10^∧(LogIC50−X)∗HillSlope) where Y is the current inhibition (in % of pre-drug control), X is the logarithm of drug concentration, and IC50 is the drug concentration producing half-maximal current inhibition. Curve fitting was performed using the following constraints: Top = 100%, Bottom = 0%, Hill Slope <2. No curve fitting was performed in cases with an obvious lack of a concentration-dependent current inhibition and/or small effect size (approximately ≤20%).
# late hNav1.5 = biological target: T2, late hNav1.5 (Homo sapiens, UniProt Q14524); assay: Automated patch clamp, late hNav1.5 current block (ATX-II activated); type: cell-based; settings: for Late hNav1.5 Na+ current inhibition, Mean: 1.00E-05 mol/L
# T2 construct: expressed in transfected cells; host or cells: HEK293 or CHO, depending on site
# Method: However, all external solutions contained 30 nM ATX-II in order to activate late current. Late current was measured at its maximum during the repolarizing ramp.
# as §1, §2
# hCav1.2 = hCav1.2 (Homo sapiens, UniProt Q13936); assay: Automated patch clamp, hCav1.2 current block; settings: for IC50: log IC50, half-maximal inhibitory concentration
# Method: Peak current was measured during the step to 0 mV. Leak current was measured after applying a saturating concentration of a blocker such as cadmium (200 µM) at the end of each experiment to completely block hCav1.2 current.
# Concentration-response relationships for each test article were independently investigated, i.e., each cell received only one test article, typically evaluating multiple concentrations in a cumulative fashion (lowest to highest concentrations). However, some platforms tested only one concentration per well. Each concentration response was based on a minimum of four concentrations, with a minimum of three wells used for each concentration. In cases of high variability, more cells per concentration were recorded. Prior to drug addition, cells received an addition of vehicle to measure non-test article-related effects such as addition artifacts. At the end of the experiment, a supramaximal concentration of a known inhibitory reference compound was applied to assess leak current and appropriate responsiveness of the test system. While it was recommended that a separate group of cells (n ≥ 3) be recorded for each experimental day to determine the baseline response to vehicle and to address day-to-day variability, this was not verified.
# These criteria were applied to all APC platforms.
# as §2
# [2] = site s02_p2, corrected for rundown
# T2 sequence (Q14524 whole entry): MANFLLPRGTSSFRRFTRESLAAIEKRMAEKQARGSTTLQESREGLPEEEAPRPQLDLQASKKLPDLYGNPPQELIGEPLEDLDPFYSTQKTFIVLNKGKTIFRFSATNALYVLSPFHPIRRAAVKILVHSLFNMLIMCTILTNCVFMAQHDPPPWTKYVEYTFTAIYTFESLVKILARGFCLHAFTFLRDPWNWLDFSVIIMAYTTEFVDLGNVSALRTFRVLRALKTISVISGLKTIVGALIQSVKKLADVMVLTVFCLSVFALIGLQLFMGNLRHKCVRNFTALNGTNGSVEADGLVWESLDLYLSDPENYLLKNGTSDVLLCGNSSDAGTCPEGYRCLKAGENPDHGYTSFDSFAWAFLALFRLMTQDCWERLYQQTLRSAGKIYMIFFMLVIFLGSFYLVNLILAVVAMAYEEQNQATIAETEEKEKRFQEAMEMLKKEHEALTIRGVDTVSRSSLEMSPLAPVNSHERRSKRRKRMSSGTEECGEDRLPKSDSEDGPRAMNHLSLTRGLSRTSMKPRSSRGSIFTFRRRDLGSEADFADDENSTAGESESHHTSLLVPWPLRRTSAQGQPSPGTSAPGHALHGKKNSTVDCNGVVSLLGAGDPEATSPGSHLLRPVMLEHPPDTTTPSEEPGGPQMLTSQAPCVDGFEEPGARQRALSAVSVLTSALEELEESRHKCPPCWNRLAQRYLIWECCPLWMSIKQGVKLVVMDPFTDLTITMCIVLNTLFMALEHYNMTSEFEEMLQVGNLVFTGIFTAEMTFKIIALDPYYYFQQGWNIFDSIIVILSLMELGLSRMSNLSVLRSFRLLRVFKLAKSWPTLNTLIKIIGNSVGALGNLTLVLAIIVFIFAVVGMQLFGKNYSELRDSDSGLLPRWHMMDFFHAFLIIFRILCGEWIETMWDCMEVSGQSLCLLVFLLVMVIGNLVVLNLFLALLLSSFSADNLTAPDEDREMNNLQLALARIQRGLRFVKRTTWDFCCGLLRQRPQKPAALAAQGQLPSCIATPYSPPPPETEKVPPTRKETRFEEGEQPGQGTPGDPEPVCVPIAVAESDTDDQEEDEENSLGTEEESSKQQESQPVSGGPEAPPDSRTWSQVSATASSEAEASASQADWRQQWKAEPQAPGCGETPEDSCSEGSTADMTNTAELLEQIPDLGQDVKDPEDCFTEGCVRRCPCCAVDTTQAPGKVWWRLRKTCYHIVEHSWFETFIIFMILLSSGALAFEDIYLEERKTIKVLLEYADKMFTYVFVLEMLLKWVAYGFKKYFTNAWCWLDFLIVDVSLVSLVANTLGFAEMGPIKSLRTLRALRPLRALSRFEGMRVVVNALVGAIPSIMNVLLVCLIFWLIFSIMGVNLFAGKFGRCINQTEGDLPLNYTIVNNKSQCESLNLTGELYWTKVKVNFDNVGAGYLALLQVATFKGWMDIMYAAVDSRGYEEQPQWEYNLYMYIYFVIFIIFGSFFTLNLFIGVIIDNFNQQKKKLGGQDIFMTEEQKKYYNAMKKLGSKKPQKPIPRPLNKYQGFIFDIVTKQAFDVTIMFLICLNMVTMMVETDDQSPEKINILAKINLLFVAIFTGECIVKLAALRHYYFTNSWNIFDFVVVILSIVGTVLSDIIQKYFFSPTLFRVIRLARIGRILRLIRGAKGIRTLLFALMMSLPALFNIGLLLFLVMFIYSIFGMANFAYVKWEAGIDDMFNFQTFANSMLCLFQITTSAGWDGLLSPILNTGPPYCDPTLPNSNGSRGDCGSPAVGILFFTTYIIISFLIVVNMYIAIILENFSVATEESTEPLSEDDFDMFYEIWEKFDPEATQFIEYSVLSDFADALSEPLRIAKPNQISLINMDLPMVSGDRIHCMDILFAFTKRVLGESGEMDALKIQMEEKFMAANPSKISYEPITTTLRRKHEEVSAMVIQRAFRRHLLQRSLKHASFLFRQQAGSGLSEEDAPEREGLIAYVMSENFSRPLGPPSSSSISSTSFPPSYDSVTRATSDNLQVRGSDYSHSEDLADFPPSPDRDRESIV
# T1 sequence (Q14524 whole entry): as above
smiles,measurement,setting,value
"CN(C)CCCN1c2ccccc2Sc2ccc(Cl)cc21 [cpz, chlorpromazine]",TdP Risk Category,[1],Intermediate
"CN(CCOc1ccc(NS(C)(=O)=O)cc1)CCc1ccc(NS(C)(=O)=O)cc1 [dof, dofetilide]",TdP Risk Category,[1],High
"C=C[C@H]1C[N@@]2CC[C@H]1C[C@@H]2[C@@H](O)c1ccnc2ccc(OC)cc12 [qui, quinidine]",TdP Risk Category,[1],High
same,"Peak hNav1.5 Na+ current inhibition, Mean","peak hNav1.5; site_platform s01_p1, 1.00E-05 mol/L",72.9%
same,"Peak hNav1.5 Na+ current inhibition, Mean","peak hNav1.5; site_platform s01_p1, 1.00E-07 mol/L",51.7%
same,"nH (=constant), peak hNav1.5 Na+ current inhibition",peak hNav1.5; site_platform s01_p1,1
same,"nH (=constant), peak hNav1.5 Na+ current inhibition",peak hNav1.5; site_platform s02_p2,1
same,"nH (=constant), peak hNav1.5 Na+ current inhibition",peak hNav1.5; site_platform s04_p3,1
same,"nH (=constant), peak hNav1.5 Na+ current inhibition",peak hNav1.5; site_platform s06_p4,1
same,"nH (=constant), peak hNav1.5 Na+ current inhibition",peak hNav1.5; site_platform s07_p6,1
same,"nH, Hill slope, peak hNav1.5 inhibition",peak hNav1.5; site_platform s10_p3,1
same,"nH, Hill slope, peak hNav1.5 inhibition",peak hNav1.5; site_platform s11_p1,1
same,"Peak hNav1.5 Na+ current inhibition, Mean","peak hNav1.5; site_platform s11_p1, 1.00E-05 mol/L",30.0%
same,"nH, Hill slope, peak hNav1.5 inhibition",peak hNav1.5; site_platform s12_p2,1
same,"nH, Hill slope, peak hNav1.5 inhibition",peak hNav1.5; site_platform s13_p2,1
same,"nH, Hill slope, peak hNav1.5 inhibition",peak hNav1.5; site_platform s14_p1,1
same,"nH, Hill slope, peak hNav1.5 inhibition",peak hNav1.5; site_platform s15_p1,1
same,"Peak hNav1.5 Na+ current inhibition, Mean","peak hNav1.5; site_platform s15_p1, 1.00E-05 mol/L",52.7%
same,"nH, Hill slope, peak hNav1.5 inhibition",peak hNav1.5; site_platform s16_p3,1
same,"nH, Hill slope, peak hNav1.5 inhibition",peak hNav1.5; site_platform s17_p1,1
same,"Peak hNav1.5 Na+ current inhibition, Mean","peak hNav1.5; site_platform s17_p1, 1.00E-05 mol/L",54.0%
same,"nH, Hill slope, peak hNav1.5 inhibition",peak hNav1.5; site_platform s18_p1,1
same,"nH, Hill slope, peak hNav1.5 inhibition",peak hNav1.5; site_platform s19_p3,1
same,"nH, Hill slope, late hNav1.5 inhibition",late hNav1.5; site_platform s06_p4,0.91
same,"Late hNav1.5 Na+ current inhibition, Mean",late hNav1.5; site_platform s06_p4,78.1%
same,"nH, Hill slope, late hNav1.5 inhibition",late hNav1.5; site_platform s07_p6,0.74
same,"Late hNav1.5 Na+ current inhibition, Mean",late hNav1.5; site_platform s07_p6,46.2%
same,"nH, Hill slope, late hNav1.5 inhibition",late hNav1.5; site_platform s13_p2,0.63
same,"nH, Hill slope, late hNav1.5 inhibition",late hNav1.5; site_platform s14_p1,2.00
same,"Late hNav1.5 Na+ current inhibition, Mean",late hNav1.5; site_platform s14_p1,68.8%
"COc1ccccc1OCC(O)CN1CCN(CC(=O)Nc2c(C)cccc2C)CC1 (stereo not shown) [ran, ranolazine]",TdP Risk Category,[1],Low
same,IC50,hCav1.2; [2],501 µM
same,IC50,hCav1.2; site s06_p4,186 µM
same,IC50,hCav1.2; site s11_p1,1350 µM
same,IC50,hCav1.2; site s14_p1,245 µM
same,IC50,hCav1.2; site s16_p3,3090 µM
same,IC50,hCav1.2; site s18_p1,148 µM
same,"Peak hCav1.2 Ca2+ current inhibition, Mean","hCav1.2; site s01_p1, 1.00E-04 mol/L",9.0%
same,"Peak hCav1.2 Ca2+ current inhibition, Mean","hCav1.2; site s01_p1, 3.00E-06 mol/L",-2.7%
same,"nH, Hill slope",hCav1.2; [2],0.74
same,"Peak hCav1.2 Ca2+ current inhibition, Mean","hCav1.2; site s02_p2, corrected for rundown, 1.00E-04 mol/L",22.9%
same,"Peak hCav1.2 Ca2+ current inhibition, Mean","hCav1.2; site s02_p2, corrected for rundown, 3.00E-06 mol/L",-1.8%
same,"nH, Hill slope",hCav1.2; site s06_p4,2.00
same,"Peak hCav1.2 Ca2+ current inhibition, Mean","hCav1.2; site s06_p4, 1.00E-04 mol/L",23.0%
same,"Peak hCav1.2 Ca2+ current inhibition, Mean","hCav1.2; site s06_p4, 3.00E-06 mol/L",12.9%
same,"nH, Hill slope",hCav1.2; site s11_p1,0.32
same,"Peak hCav1.2 Ca2+ current inhibition, Mean","hCav1.2; site s11_p1, 1.00E-04 mol/L",33.0%
same,"Peak hCav1.2 Ca2+ current inhibition, Mean","hCav1.2; site s11_p1, 3.00E-06 mol/L",14.1%
same,"nH, Hill slope",hCav1.2; site s14_p1,1.42
same,"Peak hCav1.2 Ca2+ current inhibition, Mean","hCav1.2; site s14_p1, 1.00E-04 mol/L",21.7%
same,"Peak hCav1.2 Ca2+ current inhibition, Mean","hCav1.2; site s14_p1, 3.00E-06 mol/L",-1.7%
same,"nH, Hill slope",hCav1.2; site s16_p3,0.24
same,"Peak hCav1.2 Ca2+ current inhibition, Mean","hCav1.2; site s16_p3, 1.00E-04 mol/L",31.8%
same,"Peak hCav1.2 Ca2+ current inhibition, Mean","hCav1.2; site s16_p3, 3.00E-06 mol/L",16.5%
same,"nH, Hill slope",hCav1.2; site s18_p1,2.00
same,"Peak hCav1.2 Ca2+ current inhibition, Mean","hCav1.2; site s18_p1, 1.00E-04 mol/L",36.1%
same,"Peak hCav1.2 Ca2+ current inhibition, Mean","hCav1.2; site s18_p1, 3.00E-06 mol/L",-14.2%
"CC(C)(C)c1ccc(C(O)CCCN2CCC(C(O)(c3ccccc3)c3ccccc3)CC2)cc1 (stereo not shown) [ter, terfenadine]","nH, Hill slope",hCav1.2; site s01_p1,1.62
same,"Peak hCav1.2 Ca2+ current inhibition, Mean","hCav1.2; site s01_p1, 3.00E-07 mol/L",35.6%
same,"nH, Hill slope",hCav1.2; [2],1.40
same,"Peak hCav1.2 Ca2+ current inhibition, Mean","hCav1.2; site s02_p2, corrected for rundown, 3.00E-07 mol/L",74.7%
same,"nH, Hill slope",hCav1.2; site s04_p3,0.41
same,"Peak hCav1.2 Ca2+ current inhibition, Mean","hCav1.2; site s04_p3, 3.00E-07 mol/L",32.9%
same,"nH, Hill slope",hCav1.2; site s16_p3,0.65
same,"Peak hCav1.2 Ca2+ current inhibition, Mean","hCav1.2; site s16_p3, 3.00E-07 mol/L",52.1%
same,"nH, Hill slope",hCav1.2; site s18_p1,2.00
same,"Peak hCav1.2 Ca2+ current inhibition, Mean","hCav1.2; site s18_p1, 3.00E-07 mol/L",56.4%
